Results: patent publication US20110313056A1 (BIO SYNTECH CANADA INC., priority 2005, published 2011)

Assays:
[1] = Diffusion of GP from chitosan gel into DMEM bath, phosphorus by Kjeldahl digestion; type: physicochemical; conditions: GP concentration in DMEM bath over time vs free diffusion model
Description: Here we provide evidence that supports the notion that there is no ionic cross-link between the polyelectrolyte and the counter-ion, using gels kept in contact with a bath solution to allow the weak electrolyte (glycerol 2-phosphate in this example) to diffuse out of the gel. […] A simple diffusion model predicted the diffusion profile and allowed the calculation of the diffusion constant in the gel (see section “Diffusion from a gel to a washing solution”) showing an absence of binding with the chitosan gel component.
A 7.5 mL solution (see Table 6) containing chitosan (2.93% w/v Protosan UP CL 213) was placed on ice at 4° C. To this solution, we added 2.25 mL glucosamine (2.16% w/v) drop by drop every 15 seconds followed by 1 mL glycerol 2-phosphate (GP) (33.3% w/v) and 2 mL of hydroxyethyl cellulose. […]
Samples of gel were then taken for analysis of phosphorus content and additional gel samples also taken following three subsequent washes in DMEM for 60 minutes each. Phosphorus was quantified using the established method of Kjeldahl digestion (Liao, N., Total phosphorus in Kjeldahl digests, Milwaukee, Wis.: LACHAT Instruments, 25 p., QuickChem Method 10-115-01-1-C, 1993) followed by the analysis of the absorption at 880 nm of the PO4^3− complex with ammonium molybdate and antimony potassic tartrate.
Concentration cp^m is the measured concentration from the absorption at 880 nm. […]

[2] = Glycerol 2-phosphate titration followed by 31P chemical shift and pH at different temperatures; type: physicochemical
Description: In order to measure the variation of the polyelectrolyte ionization degree (chitosan in the present case), we performed NMR measurements of the glycerol 2-phosphate (GP) ^31P chemical shift. Glycerol 2-phosphate titration curve at different temperatures allow determination pKa2^GP, δa and δb by fitting pH and δ values of the following equation
where δa and δb are the chemical shifts of ^31P in the monovalent and divalent form of GP, respectively.
This last equation is valid for ideal solutions where the proton activity coefficient is γH+=1.
We dissolve 0.594 g of glycerol 2-phosphate (Sigma, No. Cat. G-9891, 297 g/mol with 4.5 moles H2O per mole of GP) in 18 mL H2Odd and 2 mL D2O (Aldrich, No. Cat. 15,188-2-250G) in a graduate cylinder giving a CGP concentration of 100 mM. A total of 11 solutions (see Table 3) with different ionization degree are prepared from this base solution. The pH is measured with an Accumet meter, model 20 using an electrode 9803BN from Orion.

[3] = literature (Voet and Voet); cited from earlier work

Row | binding of GP to the components of the gel [1] | pKa2^GP ([2]; 5 ° C.) | pKa2^GP ([2]; 15 ° C.) | pKa2^GP ([2]; 25 ° C.) | pKa2^GP ([2]; 37 ° C.) | Structure (SMILES) | Ka1^P [3] | Ka2^P [3]
1 | lack of binding | 6.13 | 6.14 | 6.16 | 6.16 | O=P(O)(O)OC(CO)CO [GP, glycerol 2-phosphate] | – | –
2 | – | – | – | – | – | O=P(O)(O)O [phosphate, inorganic phosphate] | approximately 2.2 | ~6.8
